# From patent publication US12612380B2, “Non-lysosomal glucosylceramidase inhibitors and uses thereof” (ALECTOS THERAPEUTICS INC., priority 2019, dated 2026)
# Molecular target: T1, GBA2 (Homo sapiens, UniProt Q9HCG7)
# T1 sequence (Q9HCG7 1-927): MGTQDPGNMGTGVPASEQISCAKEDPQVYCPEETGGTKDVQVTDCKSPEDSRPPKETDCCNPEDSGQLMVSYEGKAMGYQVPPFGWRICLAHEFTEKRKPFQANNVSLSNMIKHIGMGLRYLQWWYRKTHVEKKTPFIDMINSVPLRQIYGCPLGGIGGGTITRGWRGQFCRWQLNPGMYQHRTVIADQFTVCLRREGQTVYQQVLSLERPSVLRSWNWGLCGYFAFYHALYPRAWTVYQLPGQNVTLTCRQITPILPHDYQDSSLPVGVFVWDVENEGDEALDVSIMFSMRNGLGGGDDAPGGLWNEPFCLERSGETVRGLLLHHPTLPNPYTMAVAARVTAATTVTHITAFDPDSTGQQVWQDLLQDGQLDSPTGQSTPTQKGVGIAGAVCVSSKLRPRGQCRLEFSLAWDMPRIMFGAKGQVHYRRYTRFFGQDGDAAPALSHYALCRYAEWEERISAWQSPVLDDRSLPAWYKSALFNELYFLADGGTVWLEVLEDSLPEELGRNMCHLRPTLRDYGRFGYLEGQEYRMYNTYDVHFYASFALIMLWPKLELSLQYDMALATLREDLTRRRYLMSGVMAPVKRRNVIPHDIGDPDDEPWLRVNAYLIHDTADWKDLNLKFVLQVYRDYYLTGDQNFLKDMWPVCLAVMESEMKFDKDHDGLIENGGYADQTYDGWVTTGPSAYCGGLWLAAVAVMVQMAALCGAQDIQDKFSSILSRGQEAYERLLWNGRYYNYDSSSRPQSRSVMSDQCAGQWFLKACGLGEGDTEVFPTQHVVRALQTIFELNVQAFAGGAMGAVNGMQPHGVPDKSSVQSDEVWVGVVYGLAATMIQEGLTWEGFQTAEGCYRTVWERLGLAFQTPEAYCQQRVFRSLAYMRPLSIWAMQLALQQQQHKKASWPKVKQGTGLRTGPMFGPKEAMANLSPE
# Test: Determination of IC50 values for inhibition of GBA2 in cell lysate
# Assay type: biochemical
# Design: host or cells: HEK293T (lentiviral transduction, puromycin selection); used as cellular homogenate
# Conditions: not given
# From the text: Assay for Determination of IC50 Values for Inhibition of GBA2 in Cell Lysate
# Stable GBA2-expressing HEK293T cells were generated as follows. The PCR-amplified human GBA2 (GBA2 nucleotide accession number BC011363) using the following primers: Sense 5′---CGCAAATGGGCGGTAGGCGTG (SEQ ID NO:2)---3′ and antisense 5′---TAGTCAGCCATGGGGCGGAGA (SEQ ID NO:3)---3′) was cloned into pLenti-GIII-CMV by ABM Inc. The correctness of the construct was verified by sequencing. Lentivirus particles containing GBA2 in the pLenti-GIII-CMV plasmid were prepared using a third Generation Virus Packaging Mix (ABM cat #LV053-G074) in HEK293T cells and supplied as a virus particle suspension. The virus suspension was used for infection of HEK293T cells. Cell populations stably expressing human GBA2 were selected using puromycin for several weeks as determined by activity assays and western blot.
# Various concentrations of test compounds were prepared in DMSO and then diluted into buffer consisting of 100 mM citric acid, 200 mM disodium phosphate with 1% v/v C10E6, pH 5.5. Cellular homogenates (0.25 mg/mL) of the stable HEK293T-overexpressing GBA2 cell line were preincubated for 10 min on ice with an inhibitor of GCase (20 μM (6R,7R,8S)-8-ethyl-4-azaspiro[2.5]octane-6,7-diol). The reaction solution consisted of 20 μL of 750 μM 4-methylumbelliferone-β-D glucopyranoside in 5% DMSO in the same buffer, 20 μL of GBA2-cellular homogenate pre-treated with (6R,7R,8S)-8-ethyl-4-azaspiro[2.5]octane-6,7-diol and 20 μL of various concentrations of test compound in 10% DMSO in the same buffer. The final concentrations in the reaction were 0.083 mg/mL GBA2-cellular homogenate, 250 μM 4-methylumbelliferone-β-D glucopyranoside, and various concentrations of inhibitor. The inhibitor and GBA2-cellular homogenate were preincubated together for 5 min at 37° C. The reaction was initiated by addition of substrate and allowed to proceed for 20 min at 37° C. to assess GBA2 activity. Reactions were stopped by the addition of an equal volume (60 μL) of 0.5 M NaOH, 0.3 M glycine, pH 10.5. Fluorescence was measured on a Biotek Synergy H4 plate reader at wavelengths of 365 nm for excitation and 450 nm for emission. Incubations without added enzyme or added inhibitors were used to define no enzyme activity and maximal enzyme activity, respectively. IC50 values were determined by fitting the data to a log[inhibitor concentration] versus response curve using GraphPad Prism. IC50 values were calculated as the concentration of inhibitor required to inhibit GBA2 activity by 50%.
row,SMILES,IC50 [nM]
1,"C[C@@H]1[C@@H](O)[C@H](O)[C@@H](O)CN1CCc1ccccc1 [Example 35, (2R,3R,4R,5S)-2-methyl-1-phenethylpiperidine-3,4,5-triol]",100 to 1000
2,"Cc1ccccc1CCN1C[C@H](O)[C@@H](O)[C@H](O)[C@H]1C [Example 36, (2R,3R,4R,5S)-2-methyl-1-(2-methylphenethyl)piperidine-3,4,5-triol]",100 to 1000
3,"COc1ccccc1CCN1C[C@H](O)[C@@H](O)[C@H](O)[C@H]1C [Example 37, (2R,3R,4R,5S)-1-(2-methoxyphenethyl)-2-methylpiperidine-3,4,5-triol]",100 to 1000
4,"C[C@@H]1[C@@H](O)[C@H](O)[C@@H](O)CN1CCc1ccccc1F [Example 38, (2R,3R,4R,5S)-1-(2-fluorophenethyl)-2-methylpiperidine-3,4,5-triol]",100 to 1000
5,"C[C@@H]1[C@@H](O)[C@H](O)[C@@H](O)CN1CCc1ccccc1Cl [Example 39, (2R,3R,4R,5S)-1-(2-chlorophenethyl)-2-methylpiperidine-3,4,5-triol]",100 to 1000
6,"C[C@@H]1[C@@H](O)[C@H](O)[C@@H](O)CN1CCc1cccc(F)c1F [Example 40, (2R,3R,4R,5S)-1-(2,3-difluorophenethyl)-2-methylpiperidine-3,4,5-triol]",100 to 1000
7,"C[C@@H]1[C@@H](O)[C@H](O)[C@@H](O)CN1CCc1ccc(F)cc1F [Example 41, (2R,3R,4R,5S)-1-(2,4-difluorophenethyl)-2-methylpiperidine-3,4,5-triol]",100 to 1000
8,"C[C@@H]1[C@@H](O)[C@H](O)[C@@H](O)CN1CCc1cc(F)ccc1F [Example 42, (2R,3R,4R,5S)-1-(2,5-difluorophenethyl)-2-methylpiperidine-3,4,5-triol]",< 100
9,"C[C@@H]1[C@@H](O)[C@H](O)[C@@H](O)CN1CCc1ccc(F)c(F)c1 [Example 43, (2R,3R,4R,5S)-1-(3,4-difluorophenethyl)-2-methylpiperidine-3,4,5-triol]",100 to 1000
10,"COc1ccc(CCN2C[C@H](O)[C@@H](O)[C@H](O)[C@H]2C)c(F)c1 [Example 44, (2R,3R,4R,5S)-1-(2-fluoro-4-methoxyphenethyl)-2-methylpiperidine-3,4,5-triol]",100 to 1000
11,"C[C@@H]1[C@@H](O)[C@H](O)[C@@H](O)CN1CCc1ccc(Cl)cc1F [Example 46, (2R,3R,4R,5S)-1-(4-chloro-2-fluorophenethyl)-2-methylpiperidine-3,4,5-triol]",100 to 1000
12,"C[C@@H]1[C@@H](O)[C@H](O)[C@@H](O)CN1CCc1cc(Cl)ccc1F [Example 47, (2R,3R,4R,5S)-1-(5-chloro-2-fluorophenethyl)-2-methylpiperidine-3,4,5-triol]",< 100
13,"C[C@@H]1[C@@H](O)[C@H](O)[C@@H](O)CN1CCc1c(F)cccc1F [Example 48, (2R,3R,4R,5S)-1-(2,6-difluorophenethyl)-2-methylpiperidine-3,4,5-triol]",< 100
14,"C=C(C)c1cc(F)c(CCN2C[C@H](O)[C@@H](O)[C@H](O)[C@H]2C)c(F)c1 [Example 50, (2R,3R,4R,5S)-1-(2,6-difluoro-4-(prop-1-en-2-yl)phenethyl)-2-methylpiperidine-3,4,5-triol]",< 100
15,"C[C@@H]1[C@@H](O)[C@H](O)[C@@H](O)CN1CCc1ccc(OC2CCCOC2)cc1 (stereo partly drawn) [Example 62, (2R,3R,4R,5S)-2-methyl-1-(4-((tetrahydro-2H-pyran-3-yl)oxy)phenethyl)piperidine-3,4,5-triol]",< 100
16,"C[C@@H]1[C@@H](O)[C@H](O)[C@@H](O)CN1CCc1ccc(OC2CCOCC2)cc1 [Example 63, (2R,3R,4R,5S)-2-methyl-1-(4-((tetrahydro-2H-pyran-4-yl)oxy)phenethyl)piperidine-3,4,5-triol]",< 100
17,"C[C@@H]1[C@@H](O)[C@H](O)[C@@H](O)CN1CCc1ccc(OCC2CCOC2)cc1 (stereo partly drawn) [Example 65, (2R,3R,4R,5S)-2-methyl-1-(4-((tetrahydrofuran-3-yl)methoxy)phenethyl)piperidine-3,4,5-triol]",< 100
18,"C[C@@H]1[C@@H](O)[C@H](O)[C@@H](O)CN1CCc1ccc2c(c1)OC(F)(F)O2 [Example 72, (2R,3R,4R,5S)-1-(2-(2,2-difluorobenzo[d][1,3]dioxol-5-yl)ethyl)-2-methylpiperidine-3,4,5-triol]",< 100
19,"C[C@@H]1[C@@H](O)[C@H](O)[C@@H](O)CN1CCc1cccs1 [Example 74, (2R,3R,4R,5S)-2-methyl-1-(2-(thiophen-2-yl)ethyl)piperidine-3,4,5-triol]",100 to 1000
20,"C[C@@H]1[C@@H](O)[C@H](O)[C@@H](O)CN1CCc1ccsc1 [Example 75, (2R,3R,4R,5S)-2-methyl-1-(2-(thiophen-3-yl)ethyl)piperidine-3,4,5-triol]",100 to 1000

# Same assay, conditions: cellular homogenate of HEK293T cells overexpressing human GBA2, 250 μM 4-methylumbelliferone-β-D glucopyranoside, pH 5.5, 37° C., GCase inhibitor present; read-out: GBA2 IC50
row,IC50 [nM],SMILES
1,< 100,"C[C@@H]1[C@@H](O)[C@H](O)[C@@H](O)CN1CCCC1CCCCC1 [Example 34, (2R,3R,4R,5S)-1-(3-cyclohexylpropyl)-2-methylpiperidine-3,4,5-triol]"
2,< 100,"C[C@@H]1[C@@H](O)[C@H](O)[C@@H](O)CN1CCc1ccc(OC2CCOC2)cc1 (stereo partly drawn) [Example 61, (2R,3R,4R,5S)-2-methyl-1-(4-((tetrahydrofuran-3-yl)oxy)phenethyl)piperidine-3,4,5-triol]"
3,< 100,"C[C@@H]1[C@@H](O)[C@H](O)[C@@H](O)CN1CCc1ccc(Oc2ccccc2)cc1 [Example 64, (2R,3R,4R,5S)-2-methyl-1-(4-phenoxyphenethyl)piperidine-3,4,5-triol]"
4,100 to 1000,"C[C@@H]1[C@@H](O)[C@H](O)[C@@H](O)CN1C[C@H](C)c1ccccc1 [Example 66, (2R,3R,4R,5S)-2-methyl-1-((R)-2-phenylpropyl)piperidine-3,4,5-triol]"
5,100 to 1000,"C[C@H](CN1C[C@H](O)[C@@H](O)[C@H](O)[C@H]1C)c1ccccc1 [Example 67, (2R,3R,4R,5S)-2-methyl-1-((S)-2-phenylpropyl)piperidine-3,4,5-triol]"
6,< 100,"C[C@@H]1[C@@H](O)[C@H](O)[C@@H](O)CN1CCc1ccc(-c2ccccc2)cc1 [Example 68, (2R,3R,4R,5S)-1-(2-([1,1′-biphenyl]-4-yl)ethyl)-2-methylpiperidine-3,4,5-triol]"
7,< 100,"C[C@@H]1[C@@H](O)[C@H](O)[C@@H](O)CN1CCc1c(F)cc(-c2ccccc2)cc1F [Example 69, (2R,3R,4R,5S)-1-(2-(3,5-difluoro-[1,1′-biphenyl]-4-yl)ethyl)-2-methylpiperidine-3,4,5-triol]"
8,1000 to 25000,"C[C@@H]1[C@@H](O)[C@H](O)[C@@H](O)CN1CCc1ccccn1 [Example 76, (2R,3R,4R,5S)-2-methyl-1-(2-(pyridin-2-yl)ethyl)piperidine-3,4,5-triol]"
